# Assay results: patent US20130059324A1, “SYSTEMS AND METHODS FOR MECHANICALLY STRAINED CELL CULTURE” (THE UNIVERSITY OF KANSAS, priority 2010, published 2013)
# Where two headings read alike, the source gives them in different places.
# Key:
# [1] = tested on: cells in a static monolayer culture; assay: IC90 in static monolayer culture (tested concentration); type: cell-based; conditions: concentration that inhibits the growth of 90% of the cells in a static monolayer culture
# Experimental: Table 1 includes a list of investigated chemotherapeutic drugs, their mechanisms of action and the tested concentrations.
# (§1) After 72 hours of initial seeding, one of the five drugs was added to Treatments 3 and 6 of each cell line. […] The IC90, concentration of the drug that inhibits the growth of 90% of the cells in a static monolayer culture, was used to assure a significant inhibition in the absence of simulated forces. To insure comparability, an aliquot of 1 ml of media without the drug was added to each well in Treatments 2 and 5. After adding the drug or 1 ml of media, the plates from Treatments 5 and 6 were placed back on the baseplate and subjected to the same force profile as before for the remaining 72 hours. Plates from Treatments 2 and 3 (without forces) were placed in the same incubator for the remaining 72 hours.
# A549 cells [2] = assay: Drug exposure with or without simulated forces, 6-well Bioflex plates, live cell count and exponential growth model; type: cell-based, human; conditions: for Growth Rates, With forces / Growth Rates, Without forces: drug at IC90 for 3 days; for Growth Rates, With forces: 20% maximum strain, 15 cycles/minute; for Growth Rates, Without forces: no forces, negative = reduction in viable cell count; for Effectiveness of The Drug, Without forces (E) / Effectiveness of The Drug, With forces (Ef): percentage reduction in live cell counts; for Effectiveness of The Drug, Without forces (E): 3-day drug exposure at IC90, no forces; for Effectiveness of The Drug, With forces (Ef): 3-day drug exposure at IC90, simulated forces
# Experimental: (§2) Treatments 1, 2 and 3 served as unstretched controls for Treatments 4, 5 and 6, respectively. For each cell line and drug, all treatments were independently repeated at least 3 times on different days, with 3 replicates per Treatments 1 and 4 (n=9) and 5 replicates per all other treatments (n=15).
# Cells were passaged in 75 cm2 culture flasks at 37° C. in 5% CO2, and trypsinized using TryplE™ Express (Gibco) containing phenol red.
# Cells were plated in 6-well Bioflex® plates (Flexcell® International Corporation, Hillsborough, N.C.). Each well of the plate has a flexible elastic membrane coated with a thin layer of type I collagen. Type I collagen was chosen since it more accurately represents the physiology of lung tumor cells in vivo. […] In Treatments 1, 2 and 3, NCI-H358 and A549 cells were plated at a density of 100,000 and 20,000 cells/well in 2 ml of corresponding media, respectively. For treatments involving simulated forces (Treatments 4-6), NCI-H358 and A549 cells were plated at a density of 170,000 and 35,000 cells/well, respectively.
# (§3) After allowing the cells to adhere to the membrane for 24 hours, the plates assigned for simulated forces were stretched using the FX-4000 Tension plus unit (Flexcell® International Corporation, Hillsborough, N.C.). The Flexcell unit was configured to deliver an alternating positive and negative pressure beneath the cell culture surfaces. Negative pressure pulls the culture surface down over a stationary Delrin post on the baseplate, delivering a uniform biaxial strain to the cells, and subsequent application of positive pressure releases this distension (FIGS. 9A and 9B.) In this manner, the alternating positive and negative pressure simulates forces experienced during respiration. Culture plates experiencing forces were fitted with rubber gaskets and placed on circular loading stations in the baseplate.
# After 72 hours of initial seeding, one of the five drugs was added to Treatments 3 and 6 of each cell line. […] To insure comparability, an aliquot of 1 ml of media without the drug was added to each well in Treatments 2 and 5. After adding the drug or 1 ml of media, the plates from Treatments 5 and 6 were placed back on the baseplate and subjected to the same force profile as before for the remaining 72 hours. Plates from Treatments 2 and 3 (without forces) were placed in the same incubator for the remaining 72 hours.
# (§4) Cells were trypsinized and counted at the end of day 3 in Treatments 1 and 4, and at the end of day 6 in the other treatments, using a Beckman Coulter Vi-Cell Analyzer (Beckman Coulter, Fullerton, Calif.). To examine changes in morphology, microphotographs of A549 and NCI-H358 cells were taken at the end of Treatments 1, 2, 4 and 5 using an Olympus inverted microscope and a 10× objective.
# The standard exponential cell growth model (28) was used to describe the changes in live cell counts after each treatment. According to this model, the cell count (e.g., N) at a particular time (e.g., t), is given by the equation:
# N* is the initial cell count and λ is the cell growth rate. For each cell line, the following cell growth rates were estimated: λ=growth rate in the absence of forces and drugs, λd=growth rate in the presence of a particular drug but no forces, λXf=growth rate in the presence of forces but no drugs; and λfd=growth rate in the presence of forces and a particular drug. The growth rates λd and λfd were estimated for each tested drug. Using these growth rates and the exponential growth model, the final cell counts were mathematically modeled for each treatment under various conditions (FIG. 8). For each cell line, a linear regression model that combined the information from the 5 investigated drugs was built using Stata Statistical Software (StataCorp LP, Texas) after log-transforming the six equations listed in FIG. 8. The regression coefficients in the model were the growth rates.
# NCI-H358 cells = assay: as above; type: cell-based, human; conditions: for Growth Rates, With forces / Growth Rates, Without forces: drug at IC90 for 3 days; for Growth Rates, With forces: 20% maximum strain, 15 cycles/minute; for Growth Rates, Without forces: no forces; for Effectiveness of The Drug, Without forces (E) / Effectiveness of The Drug, With forces (Ef): percentage reduction in live cell counts; for Effectiveness of The Drug, Without forces (E): 3-day drug exposure at IC90, no forces; for Effectiveness of The Drug, With forces (Ef): 3-day drug exposure at IC90, simulated forces
# Description: as §2
# The NCI-H358 (ATCC® CRL-5807) and A549 (ATCC® CCL-185) cell lines were obtained from American Type Culture Collection (ATCC, Manassas, Va.) and cultured in RPMI-1640 (NCI-H358) and HAM's F12K (A549) media containing 10% Fetal Bovine Serum (Sigma Aldrich, St. Louis, Mo.) and 1% Penicillin Streptomycin (Sigma Aldrich). Cells were passaged in 75 cm2 culture flasks at 37° C. in 5% CO2, and trypsinized using TryplE™ Express (Gibco) containing phenol red.
# Cells were plated in 6-well Bioflex® plates (Flexcell® International Corporation, Hillsborough, N.C.). Each well of the plate has a flexible elastic membrane coated with a thin layer of type I collagen. Type I collagen was chosen since it more accurately represents the physiology of lung tumor cells in vivo. The Flexcell is not configured for drug studies as described herein, and had to be modified as described herein. […] Therefore, to have the same number of cells in culture at the time of drug exposure, initial seeding densities for treatments not involving simulated forces (Treatments 1-3) and those involving forces (Treatments 4-6) were adjusted for each cell line. In Treatments 1, 2 and 3, NCI-H358 and A549 cells were plated at a density of 100,000 and 20,000 cells/well in 2 ml of corresponding media, respectively. For treatments involving simulated forces (Treatments 4-6), NCI-H358 and A549 cells were plated at a density of 170,000 and 35,000 cells/well, respectively.
# as §3, with “baseplate. […] Cells were preconditioned with mechanical forces for 48 hours, in an incubator at 37° C., 5% CO2 and 95% relative humidity.” for “baseplate.”
# as §1, §4
# The standard exponential cell growth model (28) was used to describe the changes in live cell counts after each treatment. […]
# A549 cells [3] = tested on: A549 cells
# Experimental: (§6) After allowing the cells to adhere to the flexible membrane of the 96 well plate for 24 hours, the loading pins and the system described in FIG. 7 to implement mechanical strain were used to deliver 20% maximum strain for 2 seconds to the plate assigned for mechanical forces (+M Group), followed by 2 seconds of rest (15 cycles per minute with an average strain of 10% per cycle) in keeping with a normal human respiration.
# (§7) In a parallel experiments, the cells were treated with anti-tumor drug after 72 hours of initial seeding (after 48 hours of mechanical stretching). The drug was dissolved in dimethyl sulfoxide (DMSO) at stock concentration and added to the respective media. […] The IC90 concentrations of the drugs were then added to prototype plate.
# (§8) The +M Group was subjected to continuous mechanical stretching while the −M Group plate was placed in the same incubator for additional 24 hours.
# (§9) In order to quantify viability, 6 wells per treatment group for ViCell counter and 6 wells per condition for MTS were assigned to determine the cell viability. Using Vi-Cell counter, assigned wells were filled with extra 210 μl of media to keep the volume constant in all the wells. Media from the assigned wells were transferred into a 24-well plate, and the well location was recorded. About 50 μl of trypLE was added to each well and allowed to trypsinize for a maximum of ten minutes. A small amount of media from the 24-well plate was transferred back into corresponding wells of the prototype plate to collect detached cells.
# (§10) Media and cells were transferred back into the corresponding well of the 24-well plate. All wells were brought to a final volume of 1.25 mL with PBS and mixed well. About 1 ml of this cell suspension was transferred to ViCell counter to determine the number of viable cells.
# H358 cells [4] = assay: Prototype 96-well plate, viable cell count (Vi-Cell) with and without mechanical forces; type: cell-based, human; conditions: for Effect of mechanical forces on viable cell count / cytotoxicity: 24 hours drug exposure, prototype 96-well plate; for Viable Cell Count after 24 hours of drug exposure, With forces (Ef) / Viable Cell Count after 24 hours of drug exposure, Without forces (E): drug at IC90, 24 hours; for Viable Cell Count after 24 hours of drug exposure, With forces (Ef): mechanical forces; for Viable Cell Count after 24 hours of drug exposure, Without forces (E): no forces
# Experimental: as §6
# In a parallel experiments, the cells were treated with anti-tumor drug after 72 hours of initial seeding (after 48 hours of mechanical stretching). The drug was dissolved in dimethyl sulfoxide (DMSO) at stock concentration and added to the respective media. An aliquot of 50 μl of drug stock solution was added to the well containing 100 μl of media (a 1:3 dilution) in a drug plate to get the desired IC90 concentration of the drug (Table 1). The IC90 concentrations of the drugs were then added to prototype plate.
# as §8
# In order to quantify viability, 6 wells per treatment group for ViCell counter and 6 wells per condition for MTS were assigned to determine the cell viability. Using Vi-Cell counter, assigned wells were filled with extra 210 μl of media to keep the volume constant in all the wells.
# A549 cells [5] = assay: Prototype 96-well plate, MTS assay with and without mechanical forces; type: cell-based, human
# Experimental: (§5) The prototype plate was read using the Biotek plate reader at the wavelength of 490 nm until the media only wells absorbance reached 1.0. For the +M group plate, 30 ul of MTS was added to the assigned wells and kept in the incubator for the same amount of time that required for the −M group to develop and read at the same wavelength.
# H358 cells [6] = assay: as above; type: cell-based, human; conditions: drug at IC90, 24 hours, 490 nm; for MTS absorbance after 24 hours of drug exposure, With forces (Ef): mechanical forces; for MTS absorbance after 24 hours of drug exposure, Without forces (E): no forces
# Experimental: as §5
# A549 cells [7] = assay: Prototype 96-well plate, viable cell count (Vi-Cell) with and without mechanical forces
# Experimental: as §6, §7, §8, §9, §10
Compound,IC90 [1] [µM],"Growth Rates, With forces (A549 cells [2]) [per day]","Growth Rates, Without forces (A549 cells [2]) [per day]","Effectiveness of The Drug, Without forces (E) (A549 cells [2]) [%]","Effectiveness of The Drug, With forces (Ef) (A549 cells [2]) [%]","Growth Rates, With forces (NCI-H358 cells) [per day]","Growth Rates, Without forces (NCI-H358 cells) [per day]","Effectiveness of The Drug, Without forces (E) (NCI-H358 cells) [%]","Effectiveness of The Drug, With forces (Ef) (NCI-H358 cells) [%]",Effect of mechanical forces on viable cell count / cytotoxicity (H358 cells [4]),"Viable Cell Count after 24 hours of drug exposure, With forces (Ef) (H358 cells [4])","Viable Cell Count after 24 hours of drug exposure, Without forces (E) (H358 cells [4])","MTS absorbance after 24 hours of drug exposure, With forces (Ef) (H358 cells [6])","MTS absorbance after 24 hours of drug exposure, Without forces (E) (H358 cells [6])",other results
N.N.[Cl][Pt][Cl] [Cisplatin],50,−0.211,−0.204,91.6,74.7,−0.233,−0.027,72.4,62.1,–,–,–,–,–,"Effectiveness of The Drug, Without forces (E) (A549 cells [2]; listed as P00004): 91.6%; Effectiveness of The Drug, With forces (Ef) (A549 cells [2]; listed as P00004): 74.7%"
COc1cccc2c1C(=O)c1c(O)c3c(c(O)c1C2=O)C[C@@](O)(C(=O)CO)C[C@@H]3O[C@H]1C[C@H](N)[C@H](O)[C@H](C)O1 [Doxorubicin],30,−0.268,−0.170,90.7,78.7,−0.357,−0.031,72.7,73.9,decrease in the ability,7500.0,17750.0,0.488,0.629,"Effect of mechanical forces on viable cell count / cytotoxicity (A549 cells [3]): Statistically significant reduction; MTS absorbance after 24 hours of drug exposure, With forces (Ef) (A549 cells [5]): 0.430; MTS absorbance after 24 hours of drug exposure, Without forces (E) (A549 cells [5]): 0.697"
COc1cc2c(Nc3ccc(Br)cc3F)ncnc2cc1OCC1CCN(C)CC1 [Zactima],50,−0.398,−0.055,86.8,85.6,−0.833,−0.163,81.6,93.7,decrease in the ability,11000.0,22000.0,0.368,0.536,"Effect of mechanical forces on viable cell count / cytotoxicity (A549 cells [7]; 24 hours drug exposure, prototype 96-well plate): remained unaffected; Viable Cell Count after 24 hours of drug exposure, With forces (Ef) (A549 cells [7]; drug at IC90, 24 hours, mechanical forces): 15625.0; Viable Cell Count after 24 hours of drug exposure, Without forces (E) (A549 cells [7]; drug at IC90, 24 hours, no forces): 23333.3; Effectiveness of The Drug, Without forces (E) (NCI-H358 cells; listed as P00006): 81.6%; Effectiveness of The Drug, With forces (Ef) (NCI-H358 cells; listed as P00006): 93.7%; MTS absorbance after 24 hours of drug exposure, With forces (Ef) (A549 cells [5]; A549, drug at IC90, 24 hours, 490 nm, mechanical forces): 0.307; MTS absorbance after 24 hours of drug exposure, Without forces (E) (A549 cells [5]; A549, drug at IC90, 24 hours, 490 nm, no forces): 0.495"
